Test [1] deals with T1, MAGL (Homo sapiens, UniProt Q99685).
T1 sequence (Q99685 1-303): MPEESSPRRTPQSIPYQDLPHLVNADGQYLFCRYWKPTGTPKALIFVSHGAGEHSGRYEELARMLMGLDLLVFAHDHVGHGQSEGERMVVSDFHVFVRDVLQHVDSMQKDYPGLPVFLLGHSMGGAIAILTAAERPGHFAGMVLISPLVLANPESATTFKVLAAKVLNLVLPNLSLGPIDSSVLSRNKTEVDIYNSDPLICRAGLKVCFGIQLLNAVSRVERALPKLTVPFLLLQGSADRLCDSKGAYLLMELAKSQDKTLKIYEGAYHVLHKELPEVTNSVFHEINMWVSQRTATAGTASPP
Kind of test: In vitro competitive activity-based protein profiling, MAGL, human. As to conditions: for inhibition at 1 µM: read-out: MAGL % inh. 1 μM (human).

Test [2] deals with T2, MAGL (Mus musculus, UniProt O35678).
T2 sequence (O35678 1-303): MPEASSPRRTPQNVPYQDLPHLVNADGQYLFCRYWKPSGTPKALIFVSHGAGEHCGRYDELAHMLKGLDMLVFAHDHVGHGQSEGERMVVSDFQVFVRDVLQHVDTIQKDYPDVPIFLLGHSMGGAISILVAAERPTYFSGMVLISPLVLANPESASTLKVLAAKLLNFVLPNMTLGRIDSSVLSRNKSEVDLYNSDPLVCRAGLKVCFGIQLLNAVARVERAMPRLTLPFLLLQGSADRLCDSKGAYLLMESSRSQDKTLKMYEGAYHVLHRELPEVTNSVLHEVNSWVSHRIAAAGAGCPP
Kind of test: In vitro competitive activity-based protein profiling, MAGL, mouse. As to conditions: read-out: MAGL % inh. 1 μM (mouse).

Experimental findings from patent publication US10266497B2 (ABIDE THERAPEUTICS, INC., priority 2017, dated 2019) are described below.

Turning to `O=C(O)c1ccn(C(=O)N2CCC3(CCN(Cc4cccc(-c5cncnc5)c4)C3)CC2)n1` [Example 302, 1-(2-(3-(pyrimidin-5-yl)benzyl)-2,8-diazaspiro[4.5]decane-8-carbonyl)-1H-pyrazole-3-carboxylic acid], in test [1] (read-out: MAGL % inh. (human) at 10 uM), the inhibition at 10 µM was above 75%. The inhibition at 1 µM in test [2] is 0 to 25%.
For the compound `O=C(O)c1ccn(C(=O)N2CCN(Cc3cccc(Oc4ncccc4F)c3)CC2)n1` [Example 264, 1-(4-(3-((3-fluoropyridin-2-yl)oxy)benzyl)piper-azine-1-carbonyl)-1H-pyrazole-3-carboxylic acid], the inhibition at 1 µM in test [1] and in test [2] was above 75% each time.
With `Cc1cn(C(=O)N2C[C@H]3C[C@H](Oc4ccccc4-c4ccccc4)C[C@H]3C2)nc1C(=O)O` [Example 281, 1-(trans-5-([1,1′-biphenyl]-2-yloxy)octahydro-cyclopenta[c]pyrrole-2-carbonyl)-4-methyl-1H-pyrazole-3-carboxylic acid], the inhibition at 1 µM in test [1] and in test [2] was above 75% each time.
`O=C(O)c1ccn(C(=O)N2C[C@H]3C[C@H](Oc4cccc(N5CCCC5)c4)C[C@H]3C2)n1` [Example 234, 1-(trans-5-(3-(pyrrolidin-1-yl)phenoxy)octa-hydrocyclopenta[c]pyrrole-2-carbonyl)-1H-pyrazole-3-carboxylic acid]: the inhibition at 1 µM in test [1] and in test [2] was above 75% throughout.
In the case of `O=C(O)c1ccn(C(=O)N2C[C@H]3C[C@H](Oc4ccccc4-c4cccnc4)C[C@H]3C2)n1` [Example 244, 1-(trans-5-(2-(pyridin-3-yl)phenoxy)octa-hydrocyclopenta[c]pyrrole-2-carbonyl)-1H-pyrazole-3-carboxylic acid], the inhibition at 1 µM in test [1] and in test [2] was above 75% each time.
As to `O=C(O)c1ccn(C(=O)N2CCN(Cc3ccc(N4CC5COCC5C4)cc3C(F)(F)F)CC2)n1` (stereo not shown) [Example 379, 1-(4-(4-(tetrahydro-1H-furo[3,4-c]pyrrol-5(3H)-yl)-2-(trifluoromethyl)benzyl)piperazine-1-carbonyl)-1H-pyrazole-3-carboxylic acid], the inhibition at 1 µM in test [1] and in test [2] was above 75% in each case.
As to `CN(Cc1cccc(-c2ccccc2)c1)[C@H]1C[C@@H]2CN(C(=O)n3ccc(C(=O)O)n3)C[C@@H]2C1` [Example 298, 1-(trans-5-(([1,1′-biphenyl]-3-ylmethyl)(methyl)amino)octahydrocyc-lopenta[c]pyrrole-2-carbonyl)-1H-pyrazole-3-carboxylic acid], the inhibition at 1 µM in test [1] and in test [2] was above 75% in each case.
For the compound `C[C@H]1CN(Cc2cc(Cl)cc(C(F)(F)F)c2)CCN1C(=O)n1ccc(C(N)=O)n1` [Example 271, (S)-1-(4-(3-chloro-5-(trifluoromethyl)benzyl)-2-methylpiperazine-1-carbonyl)-1H-pyrazole-3-carboxamide], the inhibition at 1 µM in test [1] and in test [2] was above 75% each time.
For the compound `C[C@@H]1CN(Cc2ccc(-c3ccccc3)cc2F)CCN1C(=O)n1ccc(C(=O)O)n1` [Example 253, (R)-1-(4-((3-fluoro-[1,1′-biphenyl]-4-yl)methyl)-2-methylpiperazine-1-carbonyl)-1H-pyrazole-3-carboxylic acid], the inhibition at 1 µM in test [1] and in test [2] was above 75% in each case.
Turning to `C[C@@H]1CN(Cc2cc(F)cc(Oc3ccc(Cl)cc3)c2)CCN1C(=O)n1ccc(C(=O)O)n1` [Example 348, (R)-1-(4-(3-(4-chlorophenoxy)-5-fluorobenzyl)-2-methylpiperazine-1-carbonyl)-1H-pyrazole-3-carboxylic acid], the inhibition at 1 µM in test [1] and in test [2] was above 75% in each case.
With `C[C@@H]1CN(Cc2cccc(Oc3ccc(F)cn3)c2)CCN1C(=O)n1ccc(C(=O)O)n1` [Example 295, (R)-1-(4-(3-((5-fluoropyridin-2-yl)oxy)benzyl)-2-methylpiperazine-1-carbonyl)-1H-pyrazole-3-carboxylic acid], the inhibition at 1 µM was 50 to 75% in test [1] and above 75% in test [2].
